The record followed here is patent publication US8748440B2 (Exelixis, Inc., priority 2002, dated 2014).

The target of this assay is T1, FXR (CMX-hFXR) (Homo sapiens, UniProt Q96RI1).
T1 construct: expressed in transfected cells; host or cells: CV-1 African Green Monkey Kidney cells
T1 sequence (Q96RI1 1-472 isoform Q96RI1-2): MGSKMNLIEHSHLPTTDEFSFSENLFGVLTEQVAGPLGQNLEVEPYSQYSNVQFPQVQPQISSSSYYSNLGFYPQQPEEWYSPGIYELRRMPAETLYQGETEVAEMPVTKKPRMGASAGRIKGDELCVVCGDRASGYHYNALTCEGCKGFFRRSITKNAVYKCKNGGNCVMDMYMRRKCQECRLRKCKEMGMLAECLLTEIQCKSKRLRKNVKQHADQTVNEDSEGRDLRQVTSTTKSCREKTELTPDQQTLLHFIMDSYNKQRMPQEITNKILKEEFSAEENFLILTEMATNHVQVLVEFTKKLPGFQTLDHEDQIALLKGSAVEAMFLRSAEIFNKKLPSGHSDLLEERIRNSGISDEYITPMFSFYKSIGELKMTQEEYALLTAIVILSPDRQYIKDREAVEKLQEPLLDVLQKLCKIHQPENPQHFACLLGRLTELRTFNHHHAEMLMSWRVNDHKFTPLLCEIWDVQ
T1 sequence (P19793 1-462 partner): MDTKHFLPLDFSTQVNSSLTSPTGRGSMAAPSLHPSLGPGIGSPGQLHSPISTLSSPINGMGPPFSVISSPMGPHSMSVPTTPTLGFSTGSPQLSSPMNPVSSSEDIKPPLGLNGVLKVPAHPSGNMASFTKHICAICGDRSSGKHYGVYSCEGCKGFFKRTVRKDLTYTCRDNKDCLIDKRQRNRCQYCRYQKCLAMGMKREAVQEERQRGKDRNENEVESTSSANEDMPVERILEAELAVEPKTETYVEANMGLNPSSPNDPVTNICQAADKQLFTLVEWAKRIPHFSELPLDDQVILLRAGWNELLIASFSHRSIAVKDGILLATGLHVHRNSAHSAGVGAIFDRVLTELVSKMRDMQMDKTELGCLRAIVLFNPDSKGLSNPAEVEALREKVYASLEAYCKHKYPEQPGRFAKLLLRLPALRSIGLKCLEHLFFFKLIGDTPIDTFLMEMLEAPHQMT
Put plainly: FXR co-transfection assay (FXR/ECREx7). Type of assay: cell-based. The note with it: for EC50: CV-1 cells, agonist mode; for Emax: relative to maximum response of chenodeoxycholic acid (CDCA), read-out: % efficacy. The method, then:
The basic co-transfection protocol for measuring FXR activity is as follows. CV-1 African Green Monkey Kidney cells are plated 24 hours before transfection to achieve approximately 70-80 percent confluency. Cells are transfected with CMX-hFXR, CMX-RXRα, Luc12 reporter (ECREx7-Tk-Luciferase), and a CMX-β-Galactosidase expression vector (See WO 00/76523). The transfection reagent used is DOTAP (Boehringer Mannheim). Cells are incubated with the DOTAP/DNA mixture for 5 hours after which the cells are harvested and plated onto either 96 well or 384 well plates containing the appropriate concentration of test compound. The assay is allowed to continue for an additional 18-20 hours, after which the cells are lysed, with lysis buffer (1% triton X 100, 10% glycerol, 5 mM Dithiothreitol, 1 mM EGTA, 25 mM Tricine, pH 7.8) and the luciferase activity is measured in the presence of Luciferase assay buffer (0.73 mM ATP, 22.3 mM Tricine, 0.11 mM EGTA, 0.55 mM Luciferin, 0.15 mM Coenzyme A, 0.5 mM HEPES, 10 mM Magnesium sulphate) on a standard luminometer plate reader (PE Biosystems, NorthStar Reader).
Both the FXR/ECREx7 co-transfection assay (Example 15) and the TR-FRET assay (Example 16) can be used to establish the EC50/IC50 values for potency and percent activity or inhibition for efficacy. Efficacy defines the activity of a compound relative to a high control (chenodeoxycholic acid, CDCA) or a low control (DMSO/vehicle). The dose response curves are generated from an 8 point curve with concentrations differing by 1/2 LOG units. Each point represents the average of 4 wells of data from a 384 well plate. The curve for the data is generated by using the equation: Y=Bottom+(Top−Bottom)/(1+10^((Log EC50−X)*HillSlope))
The EC50/IC50 is therefore defined as the concentration at which an agonist or antagonist elicits a response that is half way between the Top (maximum) and Bottom (baseline) values. The EC50/IC50 values represented are the averages of at least 3 independent experiments. The determination of the relative efficacy or % control for an agonist is by comparison to the maximum response achieved by chenodeoxycholic acid that is measured individually in each dose response experiment.
For the antagonist assay, CDCA is added to each well of a 384 well plate to elicit a response. The % inhibition for each antagonist is therefore a measurement of the inhibition of the activity of CDCA. In this example, 100% inhibition would indicate that the activity of CDCA has been reduced to baseline levels, defined as the activity of the assay in the presence of DMSO only.

For the molecule `Cc1ccc(-n2c(C(C)N(C)S(=O)(=O)c3ccc(C(C)(C)C)cc3)nc3ccc(-c4cccs4)cc3c2=O)cc1` (stereo not shown), the EC50 is roughly 600 nM and the Emax is roughly 110%.
For the molecule `COc1ccc(-n2c(C(C)N(C)S(=O)(=O)c3ccc(C(C)(C)C)cc3)nc3ccc(OC)cc3c2=O)cc1` (stereo not shown) [4-tert-butyl-N-{1-[6-methoxy-3-(4-methoxyphenyl)-4-oxo-3,4-dihydroquinazolin-2-yl]ethyl}-N-methylbenzenesulfonamide], the 50% effective concentration (EC50) is roughly 300 nM and the Emax was roughly 190%.

Broadly, the EC50 is the concentration at which the effect is half-maximal.
